Test results as given in the NIST ThermoML archive (doi:10.1016/j.jct.2018.12.039).
± gives the expanded uncertainty stated by the source.

Legend:
[1] = xn = mol fraction of the nth substance listed; settings: 100 kPa, Liquid, x1 = 1; for speed of sound: Frequency=2 MHz, Linear variable-path acoustic interferometer; for mass density: Vibrating tube method
[2] = 100 kPa, Liquid; for speed of sound: Frequency=2 MHz, Linear variable-path acoustic interferometer; for mass density: Vibrating tube method

Structure (SMILES) | speed of sound ([1]; 303.15 K) | mass density ([1]; 303.15 K) | mass density ([1]; 308.15 K) | speed of sound ([1]; 313.15 K) | mass density ([1]; 313.15 K) | mass density ([1]; 318.15 K) | speed of sound ([2]; 303.15 K) | mass density ([2]; 303.15 K) | mass density ([2]; 308.15 K) | speed of sound ([2]; 313.15 K) | mass density ([2]; 313.15 K) | mass density ([2]; 318.15 K)
CCO [ethanol] + Cc1ccccc1O | 1127 ± 2.4 m/s | 781.08 ± 1.2 kg/m3 | 776.59 ± 1.2 kg/m3 | 1094 ± 2.4 m/s | 772.23 ± 1.2 kg/m3 | 767.61 ± 1.2 kg/m3 | – | – | – | – | – | –
Cc1ccc(O)cc1 [4-methylphenol] | – | – | – | – | – | – | 1473 ± 2.5 m/s | 1026.47 ± 1.2 kg/m3 | 1022.56 ± 1.2 kg/m3 | 1440.2 ± 2.5 m/s | 1018.64 ± 1.2 kg/m3 | 1014.68 ± 1.2 kg/m3
CCO [ethanol] + Cc1cccc(O)c1 | 1127 ± 2.4 m/s | 781.08 ± 1.2 kg/m3 | 776.59 ± 1.2 kg/m3 | 1094 ± 2.4 m/s | 772.23 ± 1.2 kg/m3 | 767.61 ± 1.2 kg/m3 | – | – | – | – | – | –
Cc1ccccc1O [2-methylphenol] | – | – | – | – | – | – | 1488.1 ± 2.5 m/s | 1037.02 ± 1.2 kg/m3 | 1032.58 ± 1.2 kg/m3 | 1453 ± 2.5 m/s | 1028.19 ± 1.2 kg/m3 | 1023.82 ± 1.2 kg/m3
Cc1cccc(O)c1 [3-methylphenol] | – | – | – | – | – | – | 1466.1 ± 2.5 m/s | 1025.71 ± 1.2 kg/m3 | 1021.7 ± 1.2 kg/m3 | 1436.1 ± 2.5 m/s | 1017.69 ± 1.2 kg/m3 | 1013.65 ± 1.2 kg/m3
CCO [ethanol] | – | – | – | – | – | – | 1127 ± 2.4 m/s | 781.08 ± 1.2 kg/m3 | 776.59 ± 1.2 kg/m3 | 1094 ± 2.4 m/s | 772.23 ± 1.2 kg/m3 | 767.61 ± 1.2 kg/m3
CCO [ethanol] + Cc1ccc(O)cc1 | 1127 ± 2.4 m/s | 781.08 ± 1.2 kg/m3 | 776.59 ± 1.2 kg/m3 | 1094 ± 2.4 m/s | 772.23 ± 1.2 kg/m3 | 767.61 ± 1.2 kg/m3 | – | – | – | – | – | –
